In ChEMBL document CHEMBL1130505, “2-Aryloxycarbonylthiophene-3-sulfonamides: Highly potent and etA selective endothelin receptor antagonists” (Bioorg Med Chem Lett, 1997):

Key:
[1] = molecular target: T1, Endothelin receptor type B (Homo sapiens, UniProt P24530); experiment: In vitro binding affinity in a radioligand binding experiment by competition with [125I]-labeled endothelin-1 for ETB receptor
T1 sequence (P24530 whole entry): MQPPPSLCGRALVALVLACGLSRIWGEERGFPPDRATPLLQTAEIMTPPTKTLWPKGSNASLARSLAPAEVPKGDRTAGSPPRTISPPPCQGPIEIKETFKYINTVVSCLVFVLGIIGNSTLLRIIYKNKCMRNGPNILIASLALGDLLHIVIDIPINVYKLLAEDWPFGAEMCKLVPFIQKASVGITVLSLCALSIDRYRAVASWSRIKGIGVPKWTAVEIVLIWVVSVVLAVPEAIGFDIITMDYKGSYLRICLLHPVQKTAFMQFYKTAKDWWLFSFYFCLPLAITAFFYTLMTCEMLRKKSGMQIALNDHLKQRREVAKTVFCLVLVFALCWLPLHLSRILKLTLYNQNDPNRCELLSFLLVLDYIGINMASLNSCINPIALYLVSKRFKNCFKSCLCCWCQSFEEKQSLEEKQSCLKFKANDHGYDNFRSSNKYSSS

[2] = molecular target: T2, Endothelin receptor type B (Homo sapiens) (UniProt P24530); experiment: Percent inhibition against ETB receptor binding at a concentration of 100 uM
T2 sequence (whole entry): T1 sequence (P24530 whole entry)

[3] = molecular target: T3, Endothelin-1 receptor (Homo sapiens, UniProt P25101); experiment: In vitro binding affinity in a radioligand binding experiment by competition with [125I]-labeled endothelin-1 for ETA receptor
T3 sequence (P25101 whole entry): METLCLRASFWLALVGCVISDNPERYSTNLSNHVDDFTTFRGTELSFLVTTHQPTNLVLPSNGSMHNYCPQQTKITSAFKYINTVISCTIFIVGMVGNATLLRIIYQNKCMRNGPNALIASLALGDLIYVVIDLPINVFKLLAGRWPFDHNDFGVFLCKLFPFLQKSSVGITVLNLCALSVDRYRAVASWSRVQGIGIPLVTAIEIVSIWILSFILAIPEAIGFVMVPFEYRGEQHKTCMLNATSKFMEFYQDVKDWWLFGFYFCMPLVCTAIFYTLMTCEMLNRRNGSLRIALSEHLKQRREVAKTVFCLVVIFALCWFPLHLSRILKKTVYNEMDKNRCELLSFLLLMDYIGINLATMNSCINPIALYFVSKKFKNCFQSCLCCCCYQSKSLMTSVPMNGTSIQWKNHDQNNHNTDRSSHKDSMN

`Cc1ccc(OC(=O)c2sccc2S(=O)(=O)Nc2onc(C)c2C)c(C)c1` was tested. Which IC50 [1] did it give?
Its IC50 is over 100 µM.

And the inhibition [2]?
Its inhibition is under 50%.

And the IC50 [3]?
Its IC50 is 0.27 µM.

Which results are given for `Cc1ccc(OC(=O)c2sccc2S(=O)(=O)Nc2onc(C)c2C)cc1`?
IC50 [1]: > 100 µM; inhibition [2]: < 50%; IC50 [3]: 2.52 µM

Which IC50 [1] does the source give for `Cc1noc(NS(=O)(=O)c2ccsc2C(=O)O)c1Br` here?
Its IC50 is over 100 µM.

What about the inhibition [2] of the same molecule?
The inhibition was under 50%.

What about the IC50 [3] of the same molecule?
The IC50 was 10.2 µM.

What does the source list for `COC(=O)c1sccc1S(=O)(=O)Nc1onc(C)c1Br`?
IC50 [1]: > 100 µM; inhibition [2]: < 50%; IC50 [3]: 0.74 µM

`Cc1noc(NS(=O)(=O)c2ccsc2C(=O)O)c1Cl` was tested. Which IC50 [1] did it give?
The IC50 was over 100 µM.

What about the inhibition [2] of the same molecule?
Its inhibition is under 50%.

And the IC50 [3]?
The IC50 was 1.06 µM.

Which results are given for `Cc1cccc(OC(=O)c2sccc2S(=O)(=O)Nc2onc(C)c2Br)c1`?
IC50 [1]: > 100 µM; inhibition [2]: < 50%

With `COC(=O)c1sccc1S(=O)(=O)Nc1onc(C)c1Cl` as the molecule, how does the IC50 [1] read?
Its IC50 is over 100 µM.

What about the inhibition [2] of the same molecule?
The inhibition was under 50%.

What about the IC50 [3] of the same molecule?
The IC50 was 1.09 µM.

With `Cc1noc(NS(=O)(=O)c2ccsc2C(=O)Oc2ccccc2)c1C` as the molecule, how does the IC50 [1] read?
Its IC50 is over 100 µM.

What about the inhibition [2] of the same molecule?
The inhibition was under 50%.

What about the IC50 [3] of the same molecule?
The IC50 was 4.12 µM.

With `Cc1ccccc1OC(=O)c1sccc1S(=O)(=O)Nc1onc(C)c1Br` as the molecule, how does the IC50 [1] read?
The IC50 was over 100 µM.

And the inhibition [2]?
The inhibition was under 50%.

How did the IC50 [1] turn out when `Cc1noc(NS(=O)(=O)c2ccsc2C(=O)O)c1C` was run?
The IC50 was over 100 µM.

And the inhibition [2]?
Its inhibition is under 50%.

And the IC50 [3]?
Its IC50 is 6.06 µM.

Which IC50 [1] does the source give for `Cc1ccc(OC(=O)c2sccc2S(=O)(=O)Nc2onc(C)c2Br)cc1` here?
The IC50 was 9.21 µM.

What about the IC50 [3] of the same molecule?
Its IC50 is 0.0093 µM.

What does the source list for `COC(=O)c1sccc1S(=O)(=O)Nc1onc(C)c1C`?
IC50 [1]: > 100 µM; inhibition [2]: < 50%; IC50 [3]: 3.47 µM

`Cc1noc(NS(=O)(=O)c2ccsc2C(=O)Nc2ccccc2)c1C` was tested. Which IC50 [1] did it give?
Its IC50 is over 100 µM.

And the inhibition [2]?
Its inhibition is under 50%.

And the IC50 [3]?
Its IC50 is 0.55 µM.

Which IC50 [1] does the source give for `Cc1noc(NS(=O)(=O)c2ccsc2C(=O)Nc2ccccc2)c1Cl` here?
Its IC50 is over 100 µM.

And the inhibition [2]?
Its inhibition is under 50%.

And the IC50 [3]?
The IC50 was 0.148 µM.

Which IC50 [1] does the source give for `Cc1noc(NS(=O)(=O)c2ccsc2C(=O)Oc2ccccc2)c1Cl` here?
Its IC50 is over 100 µM.

And the inhibition [2]?
The inhibition was under 50%.

How did the IC50 [1] turn out when `Cc1noc(NS(=O)(=O)c2ccsc2C(=O)Oc2ccc3c(c2)OCO3)c1Br` was run?
The IC50 was 5.74 µM.

What about the IC50 [3] of the same molecule?
Its IC50 is 0.0089 µM.

For `Cc1noc(NS(=O)(=O)c2ccsc2C(=O)Oc2ccc3c(c2)OCO3)c1Cl`, which IC50 [1] is on record?
Its IC50 is 7.94 µM.

And the IC50 [3]?
Its IC50 is 0.0083 µM.

Which IC50 [1] does the source give for `Cc1ccc(OC(=O)c2sccc2S(=O)(=O)Nc2onc(C)c2Cl)cc1` here?
Its IC50 is over 100 µM.

And the inhibition [2]?
Its inhibition is under 50%.

How did the IC50 [1] turn out when `Cc1noc(NS(=O)(=O)c2ccsc2C(=O)Oc2ccccc2)c1Br` was run?
Its IC50 is over 100 µM.

And the inhibition [2]?
Its inhibition is under 50%.

Which results are given for `Cc1noc(NS(=O)(=O)c2ccsc2C(=O)Oc2ccc3c(c2)OCO3)c1C`?
IC50 [1]: 48.7 µM; IC50 [3]: 6.14 µM
